Assay results: patent publication US20260297080A1, “BICYCLIC COMPOUNDS AS CDK INHIBITORS” (BeOne Medicines I GmbH, priority 2022, published 2026)
Each block holds one compound with its values, some of them ahead of it.

Columns and labels:
[1] = target: CDK2/Cyclin E1 (Homo sapiens, UniProt P24941); assay: CDK2/Cyclin E1 Biochemical Assay (TR-FRET), 0.060 mM ATP; settings: 0.15 μM Rb (Ser780)-biotin substrate, pH7.0, 60 min preincubation, 120 min reaction, room temperature
Outline: (§1)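 Inhibitor concentrations up to 10 μM were preincubated with each cyclin–kinase complex for 60 minutes before ATP and biotinylated Rb (Ser780) substrate (0.15 μM) were added. After 120 minutes at room temperature, phosphorylation was quantified by HTRF and IC50 values were fitted with a four-parameter logistic equation.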

[2] = target: CDK1/Cyclin B1 (Homo sapiens, UniProt P06493); assay: CDK1/Cyclin B1 Biochemical Assay (TR-FRET), 0.015 mM ATP; settings: 0.15 μM Rb (Ser780)-biotin substrate, pH7.0, 60 min preincubation, 120 min reaction, room temperature
Outline: as §1

CDK1/Cyclin B1, sequence (P06493 whole entry): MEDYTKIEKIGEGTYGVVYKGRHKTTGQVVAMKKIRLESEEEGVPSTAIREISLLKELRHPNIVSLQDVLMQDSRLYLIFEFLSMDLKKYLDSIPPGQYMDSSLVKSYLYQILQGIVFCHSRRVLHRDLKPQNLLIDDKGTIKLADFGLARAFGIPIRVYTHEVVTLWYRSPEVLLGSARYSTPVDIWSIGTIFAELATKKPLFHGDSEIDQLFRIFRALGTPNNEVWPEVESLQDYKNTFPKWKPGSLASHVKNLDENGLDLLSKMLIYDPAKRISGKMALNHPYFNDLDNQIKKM
CDK1/Cyclin B1, sequence (P14635 whole entry partner): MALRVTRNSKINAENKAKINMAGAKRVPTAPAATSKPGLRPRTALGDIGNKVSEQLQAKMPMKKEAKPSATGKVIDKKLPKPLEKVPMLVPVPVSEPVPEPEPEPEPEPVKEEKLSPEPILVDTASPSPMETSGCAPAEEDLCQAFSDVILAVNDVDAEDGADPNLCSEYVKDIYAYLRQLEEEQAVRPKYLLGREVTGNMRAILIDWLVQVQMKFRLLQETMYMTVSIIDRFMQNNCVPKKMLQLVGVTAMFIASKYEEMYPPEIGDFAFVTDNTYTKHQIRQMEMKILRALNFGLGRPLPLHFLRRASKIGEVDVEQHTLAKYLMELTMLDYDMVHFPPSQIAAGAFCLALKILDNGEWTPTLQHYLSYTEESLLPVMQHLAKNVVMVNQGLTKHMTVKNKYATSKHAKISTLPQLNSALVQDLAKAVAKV

Structure (SMILES): CC(C)NC(=O)O[C@H]1CC[C@@H](c2cc(Nc3ccc4c(c3F)CN(C3CCC(=O)NC3)S4(=O)=O)n[nH]2)C1 (relative stereo) [Example 82, cis-3-(3-((4-fluoro-1,1-dioxido-2-(6-oxopiperidin-3-yl)-2,3-dihydrobenzo[d]isothiazol-5-yl)amino)-1H-pyrazol-5-yl)cyclopentyl isopropylcarbamate]
IC50 [1]: 10 nM
IC50 [2]: 381 nM

Structure (SMILES): CC(C)NC(=O)O[C@H]1CC[C@@H](c2cc(Nc3ccc4c(c3)C(F)(F)S(=O)(=O)N4)n[nH]2)C1 (relative stereo) [Example 334, cis-3-(3-((3,3-difluoro-2,2-dioxido-1,3-dihydrobenzo[c]isothiazol-5-yl)amino)-1H-pyrazol-5-yl)cyclopentyl isopropylcarbamate]
IC50 [1]: 84 nM
IC50 [2]: 899 nM

Structure (SMILES): CC(C)NC(=O)O[C@H]1CC[C@@H](c2cc(Nc3ccc4c(c3F)CS(=O)(=O)N4CCO)n[nH]2)C1 (single isomer, unassigned) [Example 271a, cis-3-(3-((4-fluoro-1-(2-hydroxyethyl)-2,2-dioxido-1,3-dihydrobenzo[c]isothiazol-5-yl)amino)-1H-pyrazol-5-yl)cyclopentyl isopropylcarbamate]
IC50 [1]: 3.2 nM
IC50 [2]: 172 nM

Structure (SMILES): CC(C)NC(=O)O[C@H]1CC[C@@H](c2cc(Nc3ccc4c(c3)NS(=O)(=O)N4)n[nH]2)C1 (relative stereo) [Example 320, cis-3-(3-((2,2-dioxido-1,3-dihydrobenzo[c][1,2,5]thiadiazol-5-yl)amino)-1H-pyrazol-5-yl)cyclopentyl isopropylcarbamate]
IC50 [1]: 134 nM
IC50 [2]: 1760 nM

Structure (SMILES): CCCNC(=O)O[C@H]1CC[C@@H](c2cc(Nc3ccc4c(c3F)CS(=O)(=O)N4C3COC3)n[nH]2)C1 (single isomer, unassigned) [Example 260b, cis-3-(3-((4-fluoro-1-(oxetan-3-yl)-2,2-dioxido-1,3-dihydrobenzo[c]isothiazol-5-yl)amino)-1H-pyrazol-5-yl)cyclopentyl propylcarbamate]
IC50 [1]: 3.4 nM
IC50 [2]: 103 nM

Structure (SMILES): CC(C)NC(=O)O[C@H]1CC[C@@H](c2cc(Nc3ccc4c(c3)S(=O)(=O)NC4C)[nH]n2)C1 (single isomer, unassigned) [Example 5a, cis-3-(5-((3-methyl-1,1-dioxido-2,3-dihydrobenzo[d]isothiazol-6-yl)amino)-1H-pyrazol-3-yl)cyclopentyl isopropylcarbamate]
IC50 [1]: 2.2 nM
IC50 [2]: 49 nM

Structure (SMILES): CC(C)NC(=O)O[C@@H]1CC[C@H](c2cc(Nc3ccc4c(c3)S(=O)(=O)CN4C(=O)OC(C)(C)C)n[nH]2)C1 (relative stereo) [Example 318, cis-tert-butyl 6-((5-(3-((isopropylcarbamoyl)oxy)cyclopentyl)-1H-pyrazol-3-yl)amino)benzo[d]thiazole-3 (2H)-carboxylate 1,1-dioxide]
IC50 [1]: 257 nM
IC50 [2]: 1750 nM

Structure (SMILES): CC(C)NC(=O)O[C@H]1CC[C@@H](c2cc(Nc3ccc4c(c3)CS(=O)(=O)N4CC3CCC3)n[nH]2)C1 (relative stereo) [Example 211, cis-3-(3-((1-(cyclobutylmethyl)-2,2-dioxido-1,3-dihydrobenzo[c]isothiazol-5-yl)amino)-1H-pyrazol-5-yl)cyclopentyl isopropylcarbamate]
IC50 [1]: 8.4 nM
IC50 [2]: 197 nM

Structure (SMILES): CC(C)NC(=O)O[C@H]1CC[C@@H](c2cc(Nc3ccc4c(c3F)CS(=O)(=O)N4CCCO)n[nH]2)C1 (relative stereo) [Example 389, cis-3-(3-((4-fluoro-1-(3-hydroxypropyl)-2,2-dioxido-1,3-dihydrobenzo[c]isothiazol-5-yl)amino)-1H-pyrazol-5-yl)cyclopentyl isopropylcarbamate]
IC50 [1]: 1.3 nM
IC50 [2]: 74 nM

Structure (SMILES): CC(C)NC(=O)O[C@H]1CC[C@@H](c2cc(Nc3ccc4c(c3F)CN(CC3CCCCC3)S4(=O)=O)n[nH]2)C1 (relative stereo) [Example 108, cis-3-(3-((2-(cyclohexylmethyl)-4-fluoro-1,1-dioxido-2,3-dihydrobenzo[d]isothiazol-5-yl)amino)-1H-pyrazol-5-yl)cyclopentyl isopropylcarbamate]
IC50 [1]: 37 nM
IC50 [2]: > 10000 nM

Second part, the compound after the results:

IC50 [1]: 0.3 nM
IC50 [2]: 24 nM
Structure (SMILES): O=C(NC12CC(C1)C2)O[C@H]1CC[C@@H](c2cc(Nc3ccc4c(c3F)CNS4(=O)=O)n[nH]2)C1 (relative stereo) [Example 150, cis-3-(3-((4-fluoro-1,1-dioxido-2,3-dihydrobenzo[d]isothiazol-5-yl)amino)-1H-pyrazol-5-yl)cyclopentyl bicyclo[1.1.1]pentan-1-ylcarbamate]

IC50 [1]: 1.3 nM
IC50 [2]: 26 nM
Structure (SMILES): CC(C)NC(=O)O[C@H]1CC[C@@H](c2cc(Nc3ccc4c(c3)C(C)NS4(=O)=O)n[nH]2)C1 (single isomer, unassigned) [Example 321c, cis-3-(3-((3-methyl-1,1-dioxido-2,3-dihydrobenzo[d]isothiazol-5-yl)amino)-1H-pyrazol-5-yl)cyclopentyl isopropylcarbamate]

IC50 [1]: 11 nM
IC50 [2]: 1190 nM
Structure (SMILES): CC(C)NC(=O)O[C@H]1CC[C@@H](c2cc(Nc3ccc4c(c3F)CN(C3CCCC3O)S4(=O)=O)n[nH]2)C1 (relative stereo) [Example 109, cis-3-(3-((4-fluoro-2-(2-hydroxycyclopentyl)-1,1-dioxido-2,3-dihydrobenzo[d]isothiazol-5-yl)amino)-1H-pyrazol-5-yl)cyclopentyl isopropylcarbamate]

IC50 [1]: 3.3 nM
IC50 [2]: 82 nM
Structure (SMILES): CC(C)NC(=O)O[C@H]1CC[C@@H](c2cc(Nc3ccc4c(c3F)C(C)NS4(=O)=O)n[nH]2)C1 (single isomer, unassigned) [Example 51b, cis-3-(3-((4-fluoro-3-methyl-1,1-dioxido-2,3-dihydrobenzo[d]isothiazol-5-yl)amino)-1H-pyrazol-5-yl)cyclopentyl isopropylcarbamate]

IC50 [1]: 202 nM
IC50 [2]: > 10000 nM
Structure (SMILES): CC(C)NC(=O)O[C@H]1CC[C@@H](c2cc(Nc3ccc4c(c3C(F)(F)F)CNS4(=O)=O)n[nH]2)C1 (relative stereo) [Example 22, cis-3-(3-((1,1-dioxido-4-(trifluoromethyl)-2,3-dihydrobenzo[d]isothiazol-5-yl)amino)-1H-pyrazol-5-yl)cyclopentyl isopropylcarbamate]

IC50 [1]: 2.5 nM
IC50 [2]: 91 nM
Structure (SMILES): CC1(NC(=O)O[C@H]2CC[C@@H](c3cc(Nc4cc5c(cc4F)S(=O)(=O)NC5)n[nH]3)C2)CC1 (single isomer, unassigned) [Example 44b, cis-3-(3-((6-fluoro-1,1-dioxido-2,3-dihydrobenzo[d]isothiazol-5-yl)amino)-1H-pyrazol-5-yl)cyclopentyl(1-methylcyclopropyl)carbamate]

IC50 [1]: 2.9 nM
IC50 [2]: 95 nM
Structure (SMILES): CC(C)NC(=O)O[C@H]1CC[C@@H](c2cc(Nc3ccc4c(c3)C(C)NS4(=O)=O)n[nH]2)C1 (single isomer, unassigned) [Example 321a, cis-3-(3-((3-methyl-1,1-dioxido-2,3-dihydrobenzo[d]isothiazol-5-yl)amino)-1H-pyrazol-5-yl)cyclopentyl isopropylcarbamate]

IC50 [1]: 5.1 nM
IC50 [2]: 406 nM
Structure (SMILES): CC(C)NC(=O)O[C@H]1CC[C@@H](c2cc(Nc3ccc4c(c3F)CN(C3CCC3O)S4(=O)=O)n[nH]2)C1 (single isomer, unassigned) [Example 102, cis-3-(3-((4-fluoro-2-(2-hydroxycyclobutyl)-1,1-dioxido-2,3-dihydrobenzo[d]isothiazol-5-yl)amino)-1H-pyrazol-5-yl)cyclopentyl isopropylcarbamate]

IC50 [1]: 1.2 nM
IC50 [2]: 223 nM
Structure (SMILES): CC[C@H](C)NC(=O)O[C@H]1CC[C@@H](c2cc(Nc3ccc4c(c3F)CNS4(=O)=O)n[nH]2)C1 (single isomer, unassigned) [Example 139a]

IC50 [1]: 0.4 nM
IC50 [2]: 25 nM
Structure (SMILES): CC(C)NC(=O)O[C@H]1CC[C@@H](c2cc(Nc3ccc4c(c3F)CS(=O)(=O)N4)n[nH]2)C1 (racemic) [Example 251, cis-3-(3-((4-fluoro-2,2-dioxido-1,3-dihydrobenzo[c]isothiazol-5-yl)amino)-1H-pyrazol-5-yl)cyclopentyl isopropylcarbamate]

IC50 [1]: 4.9 nM
IC50 [2]: 341 nM
Structure (SMILES): CC(C)NC(=O)O[C@H]1CC[C@@H](c2cc(Nc3ccc4c(c3F)CN(CCO)S4(=O)=O)n[nH]2)C1 (single isomer, unassigned) [Example 125b, cis-3-(3-((4-fluoro-2-(2-hydroxyethyl)-1,1-dioxido-2,3-dihydrobenzo[d]isothiazol-5-yl)amino)-1H-pyrazol-5-yl)cyclopentyl isopropylcarbamate]

IC50 [1]: 15 nM
IC50 [2]: 800 nM
Structure (SMILES): CC(C)NC(=O)O[C@H]1CC[C@@H](c2cc(Nc3cc4c(cc3F)N(CCO)S(=O)(=O)C4)n[nH]2)C1 (single isomer, unassigned) [Example 296a, cis-3-(3-((6-fluoro-1-(2-hydroxyethyl)-2,2-dioxido-1,3-dihydrobenzo[c]isothiazol-5-yl)amino)-1H-pyrazol-5-yl)cyclopentyl isopropylcarbamate]

IC50 [1]: 5.5 nM
IC50 [2]: 75 nM
Structure (SMILES): CC(C)NC(=O)O[C@H]1CC[C@@H](c2cc(Nc3ccc4c(c3)C3(CC3)S(=O)(=O)N4)n[nH]2)C1 (relative stereo) [Example 200, cis-3-(3-((2,2-dioxido-1H-spiro[benzo[c]isothiazole-3, 1′-cyclopropan]-5-yl)amino)-1H-pyrazol-5-yl)cyclopentyl isopropylcarbamate]

IC50 [1]: 2 nM
IC50 [2]: 32 nM
Structure (SMILES): O=C(NC1(CO)CCC1)O[C@H]1CC[C@@H](c2cc(Nc3ccc4c(c3F)CS(=O)(=O)N4)n[nH]2)C1 (relative stereo) [Example 418, cis-3-(3-((4-fluoro-2,2-dioxido-1,3-dihydrobenzo[c]isothiazol-5-yl)amino)-1H-pyrazol-5-yl)cyclopentyl(1-(hydroxymethyl)cyclobutyl)carbamate]
